Results from publication PMC7367283, “A PIP2 substitute mediates voltage sensor-pore coupling in KCNQ activation” (Communications Biology, 2020).

Target: T1, Kir1.1 (Homo sapiens, UniProt P48048)
T1 sequence (P48048 1-391): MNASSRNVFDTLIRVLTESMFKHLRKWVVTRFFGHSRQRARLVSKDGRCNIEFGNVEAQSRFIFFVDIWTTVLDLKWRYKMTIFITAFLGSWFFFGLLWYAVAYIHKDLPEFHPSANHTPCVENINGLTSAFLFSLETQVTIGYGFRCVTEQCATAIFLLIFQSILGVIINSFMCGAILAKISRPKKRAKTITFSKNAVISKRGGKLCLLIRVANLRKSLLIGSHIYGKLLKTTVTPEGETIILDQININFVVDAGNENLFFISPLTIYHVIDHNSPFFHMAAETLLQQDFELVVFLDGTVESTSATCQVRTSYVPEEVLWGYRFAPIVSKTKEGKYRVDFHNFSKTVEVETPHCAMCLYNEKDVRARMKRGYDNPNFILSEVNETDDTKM
Test: Two-electrode voltage clamp of Kir1.1 in Xenopus oocytes
Format: cell-based
Conditions: 10 µM CP1; for Current (Fig. 6b): mean
Source text: Since CP1 has a similar effect to PIP2 in mediating VSD-pore coupling in KCNQ channels, we tested if CP1 has effects on other ion channels that are also sensitive to PIP2 or are voltage activated and share general structural features of the VSD and the pore with KCNQ. […] On the other hand, NaV1.5 and KV4.2 are voltage-gated ion channels.
Fig. 6 Effects of CP1 on other ion channels expressed in Xenopus oocytes. a Currents of Kir1.1, CaV1.2, NaV1.5, hERG, and KV4.2 before and after application of 10 µM CP1, respectively. The voltages for holding, test, and returning pulses were Kir1.1, 0 mV, −100 to +60 mV, 0; CaV1.2, −100 mV, −100 to +60, −100 mV; NaV1.5, −100, −120 to +40 mV, −120 mV; hERG, −80 mV, −90 to +60 mV, −60 mV; KV4.2, −80 mV, −100 mV to +80 mV, −40 mV; HCN4, −30 mV, −30 to −140 mV, −120 mV. b Current–voltage relations of Kir1.1 channel in the absence or presence of 10 µM CP1 (n = 7). c–g G–V relations of indicated channels with and without 10 µM CP1. The ΔV1/2 of G–V relations (mV) are CaV1.2, 3.38 ± 0.71 mV (c); NaV1.5, −2.26 ± 0.95 mV (d); hERG, 6.85 ± 1.81 mV (e); KV 4.2, −2.26 ± 2.88 mV (f); HCN4, 17.13 ± 1.59 mV (g).
Complementary DNA (cDNA) encoding human KCNQ1 (UniProtKB/Swiss‐Prot under accession no. P51787), KCNQ2 (O43526), KCNQ3 (O43525), KCNE1 (P15382), Kir1.1 (P48048), hERG (Q12809), KV4.2 (Q63881), NaV1.5 (Q14524), NaV β1 (Q07699), CaV1.2 (Q13936), CaV β1a (Q02641), CaV α2/δ1 (P54289), and HCN4 (Q9Y3Q4) were subcloned into oocyte expression vectors, respectively. Site-directed mutations of the KCNQ1 channel were all produced by overlap extension polymerase chain reaction (PCR) with high-fidelity Pfu polymerase (Stratagene, CA). The presence of the desired mutation was verified by sequencing the PCR-amplified regions. All the primer sequences used in this study are available in Supplementary Table 1. The complementary RNA (cRNA) of all these channels and mutations was transcribed in vitro with the T3, T7, or SP6 polymerase mMessage mMachine kit (Invitrogen, Thermo Fisher Scientific, MO).
The whole-oocyte ionic currents were recorded with a GeneClamp 500B amplifier (Axon Instruments, CA) or iTEV90 amplifier (HEKA, Germany) and then sampled at 1 kHz and low-pass-filtered at 2 kHz. The Patchmaster software (HEKA, Germany) was used to acquire data. The Kir1.1 current was recorded with a high K^+ bath solution containing (in mM) 96 KCl, 4 NaCl, 1 CaCl2, 2 MgCl2, and 10 HEPES, pH 7.3–7.4. The HCN4 current was recorded in ND66 solution containing (in mM) 66 NaCl, 32 KCl, 1.8 CaCl2, 1 MgCl2, and 5 HEPES, pH 7.6. All the other potassium channels were recorded in ND96 solution. The currents of CaV1.2 channel were recorded in 40 mM Ba^2+ bath solution containing (in mM) 40 Ba(OH)2, 50 TEA-OH, 2 KOH, and 5 HEPES, adjusted to pH 7.4 with methanesulfonic acid. CP1 (DISODIUM 5-BROMO-2-[9-CHLORO-3-(SULFONATOOXY) NAPHTHO [1,2-B] THIEN-2-YL]-1H-INDOL-3-YL SULFATE, Sigma-Aldrich, MO) and Chromanol 293B (Sigma-Aldrich, MO) were dissolved in bath solutions. All the chemicals were purchased from Sigma-Aldrich. To measure the I–V relations of the Kir1.1 channel, the test voltage was set from −100 to +60 mV for 1 s with 20-mV increments. The test pulses were stepped from a holding potential of 0 mV and then stepped back to 0 mV. The HCN4 currents were recorded by a test pulse between −30 and −140 mV in 10-mV step from a holding potential of −30 mV. For all the other potassium channels and CaV1.2 channel, the holding potential was −80 or −100 mV, and the test pulse was applied with 10-mV increment, which was followed with a repolarization pulse at −40 mV before returning to the holding potential. The durations of test and the repolarization pulse vary for different channels to allow the activation and deactivation of the channel to reach their steady states.

effect on currents of Kir1.1: little effect
Current (Fig. 6b) (voltage 0 mV): -0.8738 µA
Current (Fig. 6b) (voltage 20 mV): 8.1285 µA
Current (Fig. 6b) (voltage 40 mV): 17.0203 µA
Current (Fig. 6b) (voltage 60 mV): 25.9074 µA
Current (Fig. 6b) (voltage -20 mV): -9.7186 µA
Current (Fig. 6b) (voltage -40 mV): -18.5616 µA
Current (Fig. 6b) (voltage -60 mV): -27.3089 µA
Current (Fig. 6b) (voltage -80 mV): -36.1588 µA
Current (Fig. 6b) (voltage -100 mV): -44.9245 µA
Structure (SMILES): O=S(=O)([O-])Oc1c(-c2sc3c(ccc4cccc(Cl)c43)c2OS(=O)(=O)[O-])[nH]c2ccc(Br)cc12.[Na+].[Na+] [CP1, DISODIUM 5-BROMO-2-[9-CHLORO-3-(SULFONATOOXY) NAPHTHO [1,2-B] THIEN-2-YL]-1H-INDOL-3-YL SULFATE]
